How the values were obtained:
[1] = test system: MV4-11; experiment: Antiproliferative activity against human MV4-11 cells assessed as inhibition of cell viability measured after 72 hrs by MTT assay; assay type: functional, cell-based; conditions: MV4-11, 72 h
[2] = biological target: T1, DNA (cytosine-5)-methyltransferase 1 (Homo sapiens, UniProt P26358); experiment: Inhibition of DNMT1 (unknown origin) at 1 uM preincubated for 15 mins followed by substrate and [3H-SAM] addition and measured after 60 mins by microbeta analysis relative to control; conditions: time 75.0 min
[3] = biological target: T2, DNA (cytosine-5)-methyltransferase 3A (Homo sapiens, UniProt Q9Y6K1); experiment: Inhibition of DNMT3A (unknown origin) preincubated for 15 mins followed by substrate and [3H-SAM] addition and measured after 60 mins by microbeta analysis
[4] = biological target: T1, DNA (cytosine-5)-methyltransferase 1; experiment: Inhibition of DNMT1 (unknown origin) preincubated for 15 mins followed by substrate and [3H-SAM] addition and measured after 60 mins by microbeta analysis
[5] = test system: U-937; experiment: Antiproliferative activity against human U-937 cells assessed as inhibition of cell viability measured after 72 hrs by MTT assay; assay type: functional, cell-based; conditions: U-937, 72 h
[6] = biological target: T1, DNA (cytosine-5)-methyltransferase 1; experiment: Inhibition of DNMT1 (unknown origin) at 5 uM preincubated for 15 mins followed by substrate and [3H-SAM] addition and measured after 60 mins by microbeta analysis relative to control; conditions: time 75.0 min
[7] = biological target: T3, Histone-lysine N-methyltransferase EHMT2 (Homo sapiens, UniProt Q96KQ7); experiment: Inhibition of G9a (unknown origin) preincubated for 15 mins followed by substrate and [3H-SAM] addition and measured after 60 mins by microbeta analysis
T3 sequence (Q96KQ7 whole entry): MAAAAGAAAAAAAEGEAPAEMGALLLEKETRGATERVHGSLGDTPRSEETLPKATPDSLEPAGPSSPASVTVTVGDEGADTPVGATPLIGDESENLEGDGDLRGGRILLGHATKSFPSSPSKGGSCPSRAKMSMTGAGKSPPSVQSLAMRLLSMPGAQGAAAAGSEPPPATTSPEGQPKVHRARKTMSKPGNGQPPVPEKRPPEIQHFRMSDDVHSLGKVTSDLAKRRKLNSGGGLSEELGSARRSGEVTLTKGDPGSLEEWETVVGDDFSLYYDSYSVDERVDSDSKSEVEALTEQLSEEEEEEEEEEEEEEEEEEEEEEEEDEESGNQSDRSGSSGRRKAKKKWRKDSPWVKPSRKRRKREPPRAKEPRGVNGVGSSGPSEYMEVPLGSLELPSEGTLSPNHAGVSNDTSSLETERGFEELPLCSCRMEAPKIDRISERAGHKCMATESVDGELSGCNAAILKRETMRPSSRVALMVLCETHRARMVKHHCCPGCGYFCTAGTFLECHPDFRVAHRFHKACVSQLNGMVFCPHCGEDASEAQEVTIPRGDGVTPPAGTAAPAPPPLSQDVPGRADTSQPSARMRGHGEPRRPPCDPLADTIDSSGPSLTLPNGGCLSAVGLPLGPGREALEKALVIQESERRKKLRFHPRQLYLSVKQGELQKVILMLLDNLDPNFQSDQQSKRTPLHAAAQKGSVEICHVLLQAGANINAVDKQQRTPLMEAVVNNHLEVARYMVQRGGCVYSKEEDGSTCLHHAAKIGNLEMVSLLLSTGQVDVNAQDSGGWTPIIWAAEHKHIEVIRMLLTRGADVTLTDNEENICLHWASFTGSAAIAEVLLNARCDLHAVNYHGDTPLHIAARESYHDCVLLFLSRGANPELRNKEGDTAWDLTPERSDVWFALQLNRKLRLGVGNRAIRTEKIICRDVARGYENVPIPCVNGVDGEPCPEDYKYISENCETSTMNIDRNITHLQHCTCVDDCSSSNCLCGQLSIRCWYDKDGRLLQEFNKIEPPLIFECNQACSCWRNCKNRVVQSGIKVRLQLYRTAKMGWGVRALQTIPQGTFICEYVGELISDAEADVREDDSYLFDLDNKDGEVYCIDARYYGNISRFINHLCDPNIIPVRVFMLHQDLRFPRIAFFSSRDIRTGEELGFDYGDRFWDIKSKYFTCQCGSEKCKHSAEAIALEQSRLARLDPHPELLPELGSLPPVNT

[8] = biological target: T4, DNA (cytosine-5)-methyltransferase 3B (Homo sapiens, UniProt Q9UBC3); experiment: Inhibition of DNMT3B (unknown origin) at 5 uM preincubated for 15 mins followed by substrate and [3H-SAM] addition and measured after 60 mins by microbeta analysis relative to control; conditions: time 75.0 min
[9] = biological target: T4, DNA (cytosine-5)-methyltransferase 3B; experiment: Inhibition of DNMT3B (unknown origin) preincubated for 15 mins followed by substrate and [3H-SAM] addition and measured after 60 mins by microbeta analysis
[10] = biological target: T5, Histone-lysine N-methyltransferase EHMT2 (Homo sapiens) (UniProt Q96KQ7); experiment: Inhibition of G9a (unknown origin) at 5 uM preincubated for 15 mins followed by substrate and [3H-SAM] addition and measured after 60 mins by microbeta analysis relative to control; conditions: time 75.0 min
T5 sequence (whole entry): T3 sequence (Q96KQ7 whole entry)

[11] = biological target: T2, DNA (cytosine-5)-methyltransferase 3A; experiment: Inhibition of DNMT3A (unknown origin) at 5 uM preincubated for 15 mins followed by substrate and [3H-SAM] addition and measured after 60 mins by microbeta analysis relative to control; conditions: time 75.0 min
[12] = test system: U2932; experiment: Antiproliferative activity against human U2932 cells assessed as inhibition of cell viability measured after 72 hrs by MTT assay; assay type: functional, cell-based; conditions: U2932, 72 h
[13] = test system: DOHH-2; experiment: Antiproliferative activity against human DOHH-2 cells assessed as inhibition of cell viability measured after 72 hrs by MTT assay; assay type: functional, cell-based; conditions: DOHH-2, 72 h
[14] = test system: Jurkat; experiment: Antiproliferative activity against human Jurkat cells assessed as inhibition of cell viability measured after 72 hrs by MTT assay; assay type: functional, cell-based
[15] = Antiproliferative activity against human NK-YS cells assessed as inhibition of cell viability measured after 72 hrs by MTT assay; assay type: functional, cell-based
[16] = test system: TMD8; experiment: Antiproliferative activity against human TMD8 cells assessed as inhibition of cell viability measured after 72 hrs by MTT assay; assay type: functional, cell-based; conditions: TMD8, 72 h
[17] = Clearance in Sprague-Dawley rat at 10 mg/kg, iv measured upto 24 hrs by LC/MS/MS analysis; assay type: ADME, organism-based; conditions: in vivo
[18] = Apparent clearance during terminal phase in Sprague-Dawley rat at 10 mg/kg, po measured upto 24 hrs by LC/MS/MS analysis; assay type: ADME, organism-based; conditions: in vivo, read-out: CLz/F (converted)
[19] = Volume of distribution at steady state in Sprague-Dawley rat at 10 mg/kg, iv measured upto 24 hrs by LC/MS/MS analysis; assay type: ADME, organism-based; conditions: in vivo, read-out: Vdss
[20] = AUC (0 to t) in Sprague-Dawley rat at 10 mg/kg, po measured upto 24 hrs by LC/MS/MS analysis; assay type: ADME, organism-based; conditions: in vivo, po, 10 mg/kg, 24 h
[21] = Terminal elimination half life in Sprague-Dawley rat at 10 mg/kg, po measured upto 24 hrs by LC/MS/MS analysis; assay type: ADME, organism-based; conditions: in vivo, read-out: beta t1/2 (converted)
[22] = Cmax in Sprague-Dawley rat at 10 mg/kg, iv measured upto 24 hrs by LC/MS/MS analysis; assay type: ADME, organism-based; conditions: in vivo
[23] = Volume of distribution at steady state in Sprague-Dawley rat at 10 mg/kg, po measured upto 24 hrs by LC/MS/MS analysis; assay type: ADME, organism-based; conditions: in vivo
[24] = Cmax in Sprague-Dawley rat at 10 mg/kg, po measured upto 24 hrs by LC/MS/MS analysis; assay type: ADME, organism-based; conditions: in vivo
[25] = Terminal elimination half life in Sprague-Dawley rat at 10 mg/kg, iv measured upto 24 hrs by LC/MS/MS analysis; assay type: ADME, organism-based; conditions: in vivo, read-out: beta t1/2 (converted)
[26] = Oral bioavailability in Sprague-Dawley rat at 10 mg/kg measured upto 24 hrs by LC/MS/MS analysis; assay type: ADME, organism-based; conditions: in vivo, po, 10 mg/kg, 24 h
[27] = AUC (0 to t) in Sprague-Dawley rat at 10 mg/kg, iv measured upto 24 hrs by LC/MS/MS analysis; assay type: ADME, organism-based; conditions: in vivo, iv, 10 mg/kg, 24 h

T2 sequence (Q9Y6K1 whole entry, looked up): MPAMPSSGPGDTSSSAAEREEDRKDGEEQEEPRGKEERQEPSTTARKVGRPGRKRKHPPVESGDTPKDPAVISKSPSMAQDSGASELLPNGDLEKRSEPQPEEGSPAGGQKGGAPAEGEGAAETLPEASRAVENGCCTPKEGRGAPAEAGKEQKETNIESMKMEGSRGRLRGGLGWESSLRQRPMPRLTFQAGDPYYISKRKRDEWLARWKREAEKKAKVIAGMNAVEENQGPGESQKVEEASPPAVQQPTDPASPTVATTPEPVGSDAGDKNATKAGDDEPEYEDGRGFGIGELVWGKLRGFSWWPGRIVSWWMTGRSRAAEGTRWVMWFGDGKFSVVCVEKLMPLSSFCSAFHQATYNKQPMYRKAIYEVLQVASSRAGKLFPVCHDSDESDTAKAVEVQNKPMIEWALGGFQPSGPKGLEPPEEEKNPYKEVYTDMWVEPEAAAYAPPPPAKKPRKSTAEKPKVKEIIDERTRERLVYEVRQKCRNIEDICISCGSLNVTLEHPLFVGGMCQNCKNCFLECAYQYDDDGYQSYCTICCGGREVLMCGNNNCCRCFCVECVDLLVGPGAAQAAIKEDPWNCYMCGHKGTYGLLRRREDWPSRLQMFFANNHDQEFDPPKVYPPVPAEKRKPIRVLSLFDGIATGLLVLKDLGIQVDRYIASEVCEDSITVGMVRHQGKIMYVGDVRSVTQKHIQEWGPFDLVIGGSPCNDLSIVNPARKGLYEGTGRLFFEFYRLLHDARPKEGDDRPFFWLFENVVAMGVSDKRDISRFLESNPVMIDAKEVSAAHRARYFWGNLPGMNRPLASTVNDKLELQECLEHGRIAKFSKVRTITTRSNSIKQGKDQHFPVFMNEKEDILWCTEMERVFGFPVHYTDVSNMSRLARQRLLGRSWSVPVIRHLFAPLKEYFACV
T1 sequence (P26358 whole entry): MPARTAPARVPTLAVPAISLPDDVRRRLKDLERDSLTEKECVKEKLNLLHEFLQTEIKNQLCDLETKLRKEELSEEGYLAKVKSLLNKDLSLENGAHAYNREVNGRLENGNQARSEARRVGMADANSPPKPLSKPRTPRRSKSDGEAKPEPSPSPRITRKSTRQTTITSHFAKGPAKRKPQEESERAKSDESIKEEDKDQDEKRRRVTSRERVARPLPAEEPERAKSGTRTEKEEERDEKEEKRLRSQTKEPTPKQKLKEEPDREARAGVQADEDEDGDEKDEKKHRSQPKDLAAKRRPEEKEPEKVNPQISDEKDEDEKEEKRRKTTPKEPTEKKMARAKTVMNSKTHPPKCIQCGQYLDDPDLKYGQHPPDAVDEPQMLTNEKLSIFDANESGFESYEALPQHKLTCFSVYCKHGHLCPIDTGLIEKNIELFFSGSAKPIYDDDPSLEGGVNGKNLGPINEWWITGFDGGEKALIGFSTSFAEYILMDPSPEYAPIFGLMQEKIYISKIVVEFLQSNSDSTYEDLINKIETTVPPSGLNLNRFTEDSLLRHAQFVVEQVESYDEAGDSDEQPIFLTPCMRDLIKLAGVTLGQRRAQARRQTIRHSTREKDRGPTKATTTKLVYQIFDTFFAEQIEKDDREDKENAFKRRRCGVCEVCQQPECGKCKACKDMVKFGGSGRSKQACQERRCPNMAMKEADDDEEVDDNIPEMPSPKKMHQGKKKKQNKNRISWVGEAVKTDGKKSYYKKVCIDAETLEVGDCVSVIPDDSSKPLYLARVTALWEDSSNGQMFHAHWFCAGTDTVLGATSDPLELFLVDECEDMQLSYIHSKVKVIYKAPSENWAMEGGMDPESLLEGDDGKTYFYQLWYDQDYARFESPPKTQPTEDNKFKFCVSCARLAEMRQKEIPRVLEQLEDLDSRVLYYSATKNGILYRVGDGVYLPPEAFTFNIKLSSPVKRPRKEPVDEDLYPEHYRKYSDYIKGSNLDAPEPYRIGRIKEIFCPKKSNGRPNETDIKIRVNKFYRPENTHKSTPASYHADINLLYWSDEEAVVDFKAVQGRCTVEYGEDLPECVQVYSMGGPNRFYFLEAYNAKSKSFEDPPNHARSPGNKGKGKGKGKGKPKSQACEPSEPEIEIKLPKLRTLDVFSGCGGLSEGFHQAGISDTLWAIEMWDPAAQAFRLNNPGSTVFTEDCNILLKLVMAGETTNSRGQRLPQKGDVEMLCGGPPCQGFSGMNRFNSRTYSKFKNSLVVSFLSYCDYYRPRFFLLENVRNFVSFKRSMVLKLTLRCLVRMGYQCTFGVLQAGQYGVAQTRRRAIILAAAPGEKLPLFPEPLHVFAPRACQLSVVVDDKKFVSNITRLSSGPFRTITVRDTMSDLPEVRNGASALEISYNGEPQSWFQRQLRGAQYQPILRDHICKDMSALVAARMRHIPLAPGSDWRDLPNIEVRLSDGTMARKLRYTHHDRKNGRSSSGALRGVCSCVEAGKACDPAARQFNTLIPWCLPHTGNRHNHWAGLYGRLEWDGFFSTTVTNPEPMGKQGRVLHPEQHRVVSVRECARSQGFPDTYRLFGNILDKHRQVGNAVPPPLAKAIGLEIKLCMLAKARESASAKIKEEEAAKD

SMILES	IC50 [1] [µM]	inhibition [2] [%]	IC50 [3] [µM]	IC50 [4] [µM]	IC50 [5] [µM]	inhibition [6] [%]	IC50 [7] [µM]	inhibition [8] [%]	IC50 [9] [µM]	inhibition [10] [%]	inhibition [11] [%]	other results
CN1CCN(c2cc(NCC3CCN(C(=O)NC(C)(C)C)CC3)c3cnn(CCCN4CCOCC4)c3c2)CC1	19.4	0.91	–	–	–	–	–	–	–	–	–	–
CN1CCN(c2cc(NCC3CCN(C(=O)C4CCC4)CC3)c3cnn(CCCN4CCOCC4)c3c2)CC1	34.5	9.3	–	–	–	–	–	–	–	–	–	–
CN1CCC(Nc2nc(-c3ccncc3)nc3c2ccn3CCCN2CCCC2)CC1	7.7	–	> 20	3.94	10.1	69	> 20	3.5	> 20	1.3	8.5	–
CCc1c(C#N)c(SC(C(N)=O)c2ccccc2)nc(N2CCC(N)CC2)c1C#N (stereo not given)	–	–	–	–	–	–	–	–	–	–	–	IC50 [12]: 28.9 µM; IC50 [13]: 11.1 µM; IC50 [14]: 19.8 µM; IC50 [15]: 16.7 µM; IC50 [16]: 21.4 µM

Now from value to molecule, other results behind:

IC50 [1] [µM]	inhibition [2] [%]	IC50 [3] [µM]	IC50 [4] [µM]	IC50 [5] [µM]	inhibition [6] [%]	IC50 [7] [µM]	inhibition [8] [%]	IC50 [9] [µM]	inhibition [10] [%]	inhibition [11] [%]	SMILES	other results
2.05	–	10.9	1.22	1.2	82	> 20	2.3	12.4	-1.3	11	CN1CCC(Nc2nc(-c3ccc(C#N)c(F)c3)nc3c2ccn3CCCN2CCCC2)CC1	clearance [17]: 21.7 mL/min/kg; CL/F [18]: 843 mL/min/kg; Vd [19]: 22.4 L/kg; AUCt [20]: 302.6 ng·h/mL; half-life [21]: 12.3 h; Cmax [22]: 698 ng/mL; Vdss [23]: 673.5 L/kg; Cmax [24]: 29.3 ng/mL; half-life [25]: 12.1 h; F [26]: 5.4%; AUCt [27]: 2775.5 ng·h/mL
18.3	–	16.7	1.62	26.8	52	> 20	0.6	> 20	-1.1	17	CN1CCC(Nc2nc(-c3ccc(N)nc3)nc3c2ccn3CCCN2CCCC2)CC1	–
